Measurements reported in ChEMBL document CHEMBL1862790, “Optimisation of fenarimol series for the treatment of Chagas disease”.

Legend:
[1] = test system: Trypanosoma cruzi; test: microbe, parasite or virus in culture; type: functional, organism-based, Tulahuen LacZ, Clone C4; details: Trypanosoma cruzi, Tulahuen LacZ, Clone C4
[2] = DNDI: Cytotoxicity against L-6 rat myoblasts from skeletal muscle cells; details: L6 rat skeletal muscle myoblast cells
[3] = test system: Trypanosoma cruzi; test: microbe, parasite or virus in culture; type: functional, Tulahuen LacZ, Clone C4; details: Trypanosoma cruzi, Tulahuen LacZ, Clone C4

SMILES	IC50 [1]	IC50 [2]	IC90 [3]	IC50 ([2]; IC50)
CC(C)Oc1ccc(C(O)(c2cccnc2)c2ccccc2F)cc1 (centres undefined)	3.3 nM	74000 nM	240 nM	–
Cc1ccncc1C(O)(c1ccc(Cl)cc1)c1ccc(C(F)(F)F)cc1 (centres undefined)	42 nM	–	140 nM	56500 nM
CCCCOC(Cc1ccc(Cl)nc1)c1ccc(Cl)cc1Cl (centres undefined)	> 10000 nM	–	> 10000 nM	91400 nM
Clc1ccc(C(NCCc2c[nH]c3ccccc23)c2cccnc2)cc1 (centres undefined)	14 nM	–	190 nM	48700 nM
COc1ccccc1N1CCN(C(c2cccnc2)c2ccc(Cl)cc2F)CC1 (centres undefined)	45 nM	–	100 nM	59800 nM
Cc1ccncc1C(O)(c1ccc(Cl)cc1)c1cncnc1 (centres undefined)	253 nM	–	570 nM	> 100000 nM
OC1CCN(C(c2ccc(C(F)(F)F)cc2)c2cnccn2)CC1 (centres undefined)	6520 nM	–	> 10000 nM	> 100000 nM
OC(c1cccnc1)(c1cccs1)c1ccc(Cl)cc1F (centres undefined)	5 nM	–	105 nM	> 100000 nM
CS(=O)(=O)Nc1ccc(C(O)(c2ccc(Cl)cc2)c2cccnc2)cc1 (centres undefined)	30 nM	–	240 nM	> 100000 nM
Clc1ccc(C(=NN2CCCCC2)c2cccnc2)cc1	381 nM	–	630 nM	56800 nM
NC(=O)c1ccc(C(O)(c2ccc(C(F)(F)F)cc2)c2cccnc2)cc1 (centres undefined)	120 nM	–	390 nM	> 100000 nM
Cc1ccc(C(O)(c2ccc(Cl)cc2)c2cncnc2)cn1 (centres undefined)	435 nM	–	> 1000 nM	> 100000 nM
CCCCC(O)(c1ccc(OC(C)C)cc1)c1cccnc1 (centres undefined)	17 nM	–	36 nM	55900 nM
CC(C)CC(Nc1cccnc1)c1ccc(Cl)cc1 (centres undefined)	640 nM	–	> 1000 nM	56200 nM
CO/N=C(\c1ccc(Cl)cc1)c1cccnc1	> 1000 nM	–	> 1000 nM	> 100000 nM
OC(c1ccc(Cl)cc1)(c1ccc(C(F)(F)F)cc1)c1cc(-c2ccccc2)on1 (centres undefined)	> 1000 nM	–	> 1000 nM	18700 nM
OC(c1ccc(Cl)cc1)(c1ccc(C(F)(F)F)cc1)c1cnc2ccccc2c1 (centres undefined)	> 1000 nM	–	> 1000 nM	62600 nM
OC(c1ccc(C(F)(F)F)cc1)(c1cccnc1)c1ccccc1F (centres undefined)	22 nM	> 100000 nM	210 nM	–
Cc1cnc(C(O)(c2ccc(Cl)cc2)c2ccc(C(F)(F)F)cc2)cn1 (centres undefined)	> 1000 nM	–	> 1000 nM	61600 nM
NC(=O)c1ccccc1C(O)(c1ccc(Cl)cc1)c1cccnc1 (centres undefined)	33 nM	–	140 nM	> 100000 nM

SMILES	IC50 [1]	IC50 [2]	IC90 [3]	IC50 ([2]; IC50)
CC(C)Oc1ccc(C(c2cccnc2)N2CCN(C(=O)C(C)C)CC2)cc1 (centres undefined)	35 nM	–	200 nM	> 100000 nM
CC(C)Oc1ccc(C(O)(c2cccnc2)c2cnc(Cl)nc2)cc1 (centres undefined)	293 nM	–	670 nM	> 100000 nM
FC(F)(F)c1ccc(C(NCC2CCCCC2)c2cnccn2)cc1 (centres undefined)	390 nM	–	740 nM	59200 nM
CC1(C)COC(c2cccc(C(O)(c3ccc(Cl)cc3)c3cncnc3)c2)=N1 (centres undefined)	500 nM	–	890 nM	> 100000 nM
CN(CC1CCCCC1)C(c1ccc(C(F)(F)F)cc1)c1cnccn1 (centres undefined)	480 nM	–	820 nM	55600 nM
CC(C)c1ccc(C(O)(c2ccc(C(F)(F)F)cc2)c2cncnc2)cc1 (centres undefined)	4.5 nM	–	20 nM	56500 nM
OC(c1ccc(Cl)cc1)(c1cccnc1)c1cccc(F)c1F (centres undefined)	107 nM	> 100000 nM	256 nM	–
COc1ccc(CNC(c2ccc(Cl)cc2)c2cccnc2)cc1 (centres undefined)	78 nM	–	899 nM	> 100000 nM
Cc1cnc(C(O)(c2ccc(Cl)cc2)c2cncnc2)cn1 (centres undefined)	2110 nM	–	5910 nM	> 100000 nM
N#CC(c1ccc(Cl)cc1)N1CCN(c2ccccc2)CC1 (centres undefined)	> 1000 nM	–	> 1000 nM	> 100000 nM
N#Cc1ccc(C(O)(c2ccc(Cl)cc2)c2cccnc2)c(F)c1 (centres undefined)	26 nM	–	110 nM	> 100000 nM
Clc1ccc(C(c2cccnc2)n2cccn2)cc1 (centres undefined)	290 nM	–	570 nM	> 100000 nM
OC(c1ccc(Cl)cc1)(c1cncnc1)c1ccc(Cl)cc1F (centres undefined)	52 nM	–	450 nM	54100 nM
CCCCC(NCC1CCCCC1)c1cccnc1 (centres undefined)	450 nM	–	700 nM	> 100000 nM
CN(C)C(=O)C1CCN(C(c2ccc(C(F)(F)F)cc2)c2cnccn2)CC1 (centres undefined)	1010 nM	–	3410 nM	> 100000 nM
OC(c1ccc(Cl)cc1)(c1cccnc1)c1cc(F)ccc1F (centres undefined)	44 nM	> 100000 nM	108 nM	–
CC(C)Oc1ncc(C(O)(c2ccc(Cl)cc2)c2cccnc2)cn1 (centres undefined)	60 nM	–	230 nM	> 100000 nM
CSc1ncc(C(O)(c2ccc(Cl)cc2)c2cccnc2)cn1 (centres undefined)	288 nM	–	600 nM	> 100000 nM
OC(c1ccc(Cl)cc1)(c1cccnc1)c1c(F)cccc1F (centres undefined)	80 nM	> 100000 nM	182 nM	–
CS(=O)(=O)N1CCN(C(c2ccc(Cl)cc2)c2cccnc2)CC1 (centres undefined)	110 nM	–	216 nM	> 100000 nM

SMILES	IC50 [1]	IC50 [2]	IC90 [3]	IC50 ([2]; IC50)
CN(C)CCOc1ncc(C(O)(c2ccc(Cl)cc2)c2cccnc2)cn1 (centres undefined)	> 1000 nM	–	> 1000 nM	> 100000 nM
N#Cc1ccc(C(O)(c2ccc(Cl)cc2)c2cccnc2)cc1 (centres undefined)	59 nM	–	160 nM	> 100000 nM
CC(C)CC(=O)N1CCN(C(c2ccc(Cl)cc2)c2cccnc2)CC1 (centres undefined)	55 nM	–	180 nM	> 100000 nM
NC(=O)c1ccc(C(O)(c2ccc(Cl)cc2)c2cccnc2)c(F)c1 (centres undefined)	660 nM	–	790 nM	> 100000 nM
Fc1ccccc1C(c1ccc(C(F)(F)F)cc1)c1cccnc1 (centres undefined)	150 nM	64000 nM	510 nM	–
OC(c1ccc(C(F)(F)F)cc1)(c1cccnc1)c1ccc(Cl)cc1F (centres undefined)	1.77 nM	> 100000 nM	5 nM	–
N#CC(c1ccc(Cl)cc1)c1ccccn1 (centres undefined)	> 1000 nM	–	> 1000 nM	> 100000 nM
CC(C)CNC(c1ccc(C(F)(F)F)cc1)c1cnccn1 (centres undefined)	800 nM	–	2100 nM	> 100000 nM
OC(c1ccc(Cl)cc1)(c1cncnc1)c1cscn1 (centres undefined)	251 nM	–	650 nM	> 100000 nM
O=C1CCCN1CCCNC(c1ccc(Cl)cc1)c1cccnc1 (centres undefined)	378 nM	–	820 nM	> 100000 nM
OC(c1ccc(Cl)cc1)(c1cccnc1)c1cncs1 (centres undefined)	140 nM	–	500 nM	> 100000 nM
FC(F)(F)c1ccc(C(NCC2CCCCC2)c2cccnc2)cc1 (centres undefined)	110 nM	–	220 nM	54000 nM
Cc1noc(C)c1C(O)(c1ccc(Cl)cc1)c1ccc(C(F)(F)F)cc1 (centres undefined)	> 1000 nM	–	> 1000 nM	57900 nM
OC1CCN(C(c2ccc(Cl)cc2)c2cccnc2)CC1 (centres undefined)	800 nM	–	> 1000 nM	> 100000 nM
OC(c1cccnc1)(c1cnc(Cl)nc1)c1ccc(Cl)cc1F (centres undefined)	179 nM	–	630 nM	> 100000 nM
Clc1ccc(C(c2cccnc2)c2cccs2)cc1 (centres undefined)	17 nM	–	45 nM	> 100000 nM
CC(C)C(=O)N1CCN(C(c2cccnc2)c2ccc(Cl)cc2F)CC1 (centres undefined)	62 nM	–	220 nM	> 100000 nM
NC(=O)C1CCN(C(c2ccc(C(F)(F)F)cc2)c2cnccn2)CC1 (centres undefined)	6410 nM	–	> 10000 nM	> 100000 nM
